{"source": "patent USRE39148E1", "about": "“Potentiation of the Microbicide 2-(Thiocyanomethylthio)benzothiazole using an n-alkyl heterocyclic compound” (Buckman Laboratories International, Inc., priority 1995, dated 2006)", "key": {"[1]": {"system": "Sphaerotilus natans, ATCC 15291", "test": "18 Hour Stokes Broth Test", "format": "cell-based", "conditions": "alone", "description": "The bactericidal effects of the combined use of TCMTB and N-alkyl heterocyclic compounds against bacteria were measured using an 18 Hour Stokes Broth Test. Combinations of TCMTB and N-dodecyl morpho line (DDM) and of TCMTB and N-dodecyl imidazole (DDI) were tested against the bacteria Sphaerotilus natans, ATCC 15291. In this test, compound A was Busan® 1030 product, a 30% TCMTB formulation, and compound B was either DDM (99%) or DDI (99%). The Busan® […] product is available from Buckman Laboratories, Memphis, Tenn. The Stokes broth substrate used to evaluate effectiveness of microbicidal compositions against Sphaerotilus natans was prepared by adding the following to one liter of water: [table] The broth was adjusted to pH 7.0 with sodium hydroxide. Forty gram portions were then added to 180 mL Pyrex milk dilution bottles fitted with […] rubber stoppers and then sterilized. Each of the following substances was then added to each bottle in the order listed. • 1. Sterile distilled water as required in each individual case to bring the total weight of the contents of each bottle to 50 g after all subsequent additions specified below (including inoculation with the aqueous suspension of test organism) have been made. • 2. Solution of toxicant or control agent to be evaluated in such individual volumes as to give the concentration desired in parts per million by weight. • 3. One mL of a 24-hour old S. natans culture grown in Stokes broth. After the inoculant suspension of the test organism was added to the bottles they were incubated at 28° C. for 18 hours. After this incubation, a 1 mL of sample was withdrawn from each bottle, diluted, plated on Stokes agar, and incubated for 72-96 hr. at 28-30° C. Stokes agar was prepared like the broth with 12.5 g agar added per liter. The number of colonies on each plate was determined and converted to the count per milliliter of substrate. […] A percentage kill of 90 percent or higher represents an extremely useful bactericidal composition. […] Others may be calculated from the data presented."}, "[2]": {"system": "Desulfovibrio desulfuricans, ATCC 7757", "test": "28 Day API Test", "format": "cell-based", "parameters": "key: 0=no growth; 4=heavy growth", "conditions": "alone", "description": "The bactericidal effects of the combined use of TCMTB and N-alkyl heterocyclic compounds against bacteria were measured using an 28 Day API Test. Combinations of TCMTB (compound A) and N-dodecyl morpholine (DDM, compound B) and of TCMTB (compound A) and N-dodecyl imidazole (DDI, compound B) were tested against the bateria Desulfovibrio desulfuricans, ATCC 7757. Busan® 1030 product, a 30% TCMTB formulation, DDM (99%), and DDI (99%) were used in this testing. The Busan® […] product is available from Buckman Laboratories, Memphis Tenn. The medium used was a modified API Broth having the following composition: […] The compounds were dissolved in 1.0 L of deionized water to form the medium. The pH of the medium was adjusted to a final pH of 6.9 with 1 N sodium hydroxide prior to sterilization. The medium was sterilized at 121° C. for 20 minutes and then allowed to cool to room temperature. The medium is then inoculated by adding 10 ml per liter of a 24-hr. broth culture of Desulfovibrio desulfuricans. From stock solutions of the chemicals to be tested, sufficient amounts of the compounds were added to 1 oz. glass bottles so that when a bottle was completely filled, the desired concentration of the chemical was present. The bottles were then completely filled with the inoculated API broth (10 mL innoculum per liter medium) in a manner such as to exclude all air and provide an anaerobic state. The bottles were capped tightly and inverted gently to mix the contents and, at the same time, to make sure no air bubbles were present. Incubation was carried out at 37° C. for 28 days. Growth was indicated by blackening of the culture medium, whereas those bottles having sufficient chemical to inhibit growth would remain clear. Observations of growth were made at the end of 7 days, 14 days, 21 days and 28 days. […] The minimum inhibitory concentration (MIC) was defined as the lowest concentration tested which gave no growth in the bottle (clear liquid). […] Others may be calculated from the data presented."}}, "data": [{"smiles": "CCCCCCCCCCCCn1ccnc1", "note": "[Dodecyl Imidazole, N-dodecyl imidazole]", "values": [{"measurement": "% Kill", "setting": "[1]; Table 3, 1 ppm", "result": 75.1, "unit": "%"}, {"measurement": "CFU/mL", "setting": "[1]; Table 3, 1 ppm", "result": "1.26 × 10^6 CFU/mL"}, {"measurement": "% Kill", "setting": "[1]; Table 3, 2 ppm", "result": 86.5, "unit": "%"}, {"measurement": "CFU/mL", "setting": "[1]; Table 3, 2 ppm", "result": "6.80 × 10^5 CFU/mL"}, {"measurement": "CFU/mL", "setting": "[1]; Table 3, 5 ppm", "result": "<10^3 CFU/mL"}, {"measurement": "CFU/mL", "setting": "[1]; Table 3, 10 ppm", "result": "<10^3 CFU/mL"}, {"measurement": "CFU/mL", "setting": "[1]; Table 3, 20 ppm", "result": "<10^3 CFU/mL"}, {"measurement": "CFU/mL", "setting": "[1]; Table 3, 50 ppm", "result": "<10^3 CFU/mL"}, {"measurement": "CFU/mL", "setting": "[1]; Table 3, 100 ppm", "result": "<10^3 CFU/mL"}]}, {"smiles": "CCCCCCCCCCCCN1CCOCC1", "note": "[Dodecyl Morpholine, N-dodecyl morpholine]", "values": [{"measurement": "% Kill", "setting": "[1]; Table 2, 1 ppm", "result": 58.4, "unit": "%"}, {"measurement": "CFU/mL", "setting": "[1]; Table 2, 1 ppm", "result": "1.58 × 10^6 CFU/mL"}, {"measurement": "% Kill", "setting": "[1]; Table 2, 2 ppm", "result": 67.4, "unit": "%"}, {"measurement": "CFU/mL", "setting": "[1]; Table 2, 2 ppm", "result": "1.24 × 10^6 CFU/mL"}, {"measurement": "% Kill", "setting": "[1]; Table 2, 5 ppm", "result": 77.6, "unit": "%"}, {"measurement": "CFU/mL", "setting": "[1]; Table 2, 5 ppm", "result": "8.51 × 10^5 CFU/mL"}, {"measurement": "CFU/mL", "setting": "[1]; Table 2, 10 ppm", "result": "<10^3 CFU/mL"}, {"measurement": "CFU/mL", "setting": "[1]; Table 2, 20 ppm", "result": "<10^3 CFU/mL"}, {"measurement": "growth, Day 7", "setting": "[2]; Table 4, 10 ppm", "result": 4}, {"measurement": "growth, Day 14", "setting": "[2]; Table 4, 10 ppm", "result": 4}, {"measurement": "growth, Day 21", "setting": "[2]; Table 4, 10 ppm", "result": 4}, {"measurement": "growth, Day 28", "setting": "[2]; Table 4, 10 ppm", "result": 4}, {"measurement": "growth, Day 7", "setting": "[2]; Table 4, 20 ppm", "result": 4}, {"measurement": "growth, Day 14", "setting": "[2]; Table 4, 20 ppm", "result": 4}, {"measurement": "growth, Day 21", "setting": "[2]; Table 4, 20 ppm", "result": 4}, {"measurement": "growth, Day 28", "setting": "[2]; Table 4, 20 ppm", "result": 4}, {"measurement": "growth, Day 7", "setting": "[2]; Table 4, 40 ppm", "result": 2}, {"measurement": "growth, Day 14", "setting": "[2]; Table 4, 40 ppm", "result": 3}, {"measurement": "growth, Day 21", "setting": "[2]; Table 4, 40 ppm", "result": 4}, {"measurement": "growth, Day 28", "setting": "[2]; Table 4, 40 ppm", "result": 4}, {"measurement": "growth, Day 7", "setting": "[2]; Table 4, 80 ppm", "result": 0}, {"measurement": "growth, Day 14", "setting": "[2]; Table 4, 80 ppm", "result": 1}, {"measurement": "growth, Day 21", "setting": "[2]; Table 4, 80 ppm", "result": 3}, {"measurement": "growth, Day 28", "setting": "[2]; Table 4, 80 ppm", "result": 4}, {"measurement": "growth, Day 7", "setting": "[2]; Table 4, 160 ppm", "result": 0}, {"measurement": "growth, Day 14", "setting": "[2]; Table 4, 160 ppm", "result": 0}, {"measurement": "growth, Day 21", "setting": "[2]; Table 4, 160 ppm", "result": 2}, {"measurement": "growth, Day 28", "setting": "[2]; Table 4, 160 ppm", "result": 3}, {"measurement": "growth, Day 7", "setting": "[2]; Table 4, 320 ppm", "result": 0}, {"measurement": "growth, Day 14", "setting": "[2]; Table 4, 320 ppm", "result": 0}, {"measurement": "growth, Day 21", "setting": "[2]; Table 4, 320 ppm", "result": 0}, {"measurement": "growth, Day 28", "setting": "[2]; Table 4, 320 ppm", "result": 0}, {"measurement": "growth, Day 7", "setting": "[2]; Table 5, 1 ppm", "result": 4}, {"measurement": "growth, Day 14", "setting": "[2]; Table 5, 1 ppm", "result": 4}, {"measurement": "growth, Day 21", "setting": "[2]; Table 5, 1 ppm", "result": 4}, {"measurement": "growth, Day 28", "setting": "[2]; Table 5, 1 ppm", "result": 4}, {"measurement": "growth, Day 7", "setting": "[2]; Table 5, 2 ppm", "result": 4}, {"measurement": "growth, Day 14", "setting": "[2]; Table 5, 2 ppm", "result": 4}, {"measurement": "growth, Day 21", "setting": "[2]; Table 5, 2 ppm", "result": 4}, {"measurement": "growth, Day 28", "setting": "[2]; Table 5, 2 ppm", "result": 4}, {"measurement": "growth, Day 7", "setting": "[2]; Table 5, 4 ppm", "result": 4}, {"measurement": "growth, Day 14", "setting": "[2]; Table 5, 4 ppm", "result": 4}, {"measurement": "growth, Day 21", "setting": "[2]; Table 5, 4 ppm", "result": 4}, {"measurement": "growth, Day 28", "setting": "[2]; Table 5, 4 ppm", "result": 4}, {"measurement": "growth, Day 7", "setting": "[2]; Table 5, 8 ppm", "result": 2}, {"measurement": "growth, Day 14", "setting": "[2]; Table 5, 8 ppm", "result": 4}, {"measurement": "growth, Day 28", "setting": "[2]; Table 5, 8 ppm", "result": 4}, {"measurement": "growth, Day 7", "setting": "[2]; Table 5, 16 ppm", "result": 0}, {"measurement": "growth, Day 14", "setting": "[2]; Table 5, 16 ppm", "result": 0}, {"measurement": "growth, Day 21", "setting": "[2]; Table 5, 16 ppm", "result": 0}, {"measurement": "growth, Day 28", "setting": "[2]; Table 5, 16 ppm", "result": 0}, {"measurement": "growth, Day 7", "setting": "[2]; Table 5, 32 ppm", "result": 0}, {"measurement": "growth, Day 14", "setting": "[2]; Table 5, 32 ppm", "result": 0}, {"measurement": "growth, Day 28", "setting": "[2]; Table 5, 32 ppm", "result": 0}]}]}
